Measurements from patent US11547697B2, “Heterocyclic compounds and uses thereof” (MILLENNIUM PHARMACEUTICALS, INC., priority 2009, dated 2023).
Read-outs that look alike come from different tables or passages of the source.

Key:
p110α/p85α = p110α/p85α (Homo sapiens (Human), UniProt P42336); assay: PI 3-Kinase (human) HTRF assay, p110α/p85α; type: biochemical
p110β/p85α = p110β/p85α (Homo sapiens (Human), UniProt P42338); assay: PI 3-Kinase (human) HTRF assay, p110β/p85α; type: biochemical
p110δ/p85α = p110δ/p85α (Homo sapiens (Human), UniProt O00329); assay: PI 3-Kinase (human) HTRF assay, p110δ/p85α; type: biochemical
p110γ = p110γ (Homo sapiens (Human), UniProt P48736); assay: PI 3-Kinase (human) HTRF assay, p110γ; type: biochemical
[1] = test system: tumor cells with a PI3Kα mutation (e.g., MDA-MB-361 and T47D); assay: Proliferation of tumor cells with PI3Kα mutation; type: cell-based; details: Homo sapiens, PC3; read-out: PC3 proliferation In Vitro IC50
[2] = in vitro, read-out: PI3K α IC50
[3] = in vitro, read-out: PI3K β IC50
[4] = in vitro, read-out: PI3K δ IC50
[5] = in vitro, read-out: PI3K γ IC50

p110δ/p85α, sequence (O00329 whole entry): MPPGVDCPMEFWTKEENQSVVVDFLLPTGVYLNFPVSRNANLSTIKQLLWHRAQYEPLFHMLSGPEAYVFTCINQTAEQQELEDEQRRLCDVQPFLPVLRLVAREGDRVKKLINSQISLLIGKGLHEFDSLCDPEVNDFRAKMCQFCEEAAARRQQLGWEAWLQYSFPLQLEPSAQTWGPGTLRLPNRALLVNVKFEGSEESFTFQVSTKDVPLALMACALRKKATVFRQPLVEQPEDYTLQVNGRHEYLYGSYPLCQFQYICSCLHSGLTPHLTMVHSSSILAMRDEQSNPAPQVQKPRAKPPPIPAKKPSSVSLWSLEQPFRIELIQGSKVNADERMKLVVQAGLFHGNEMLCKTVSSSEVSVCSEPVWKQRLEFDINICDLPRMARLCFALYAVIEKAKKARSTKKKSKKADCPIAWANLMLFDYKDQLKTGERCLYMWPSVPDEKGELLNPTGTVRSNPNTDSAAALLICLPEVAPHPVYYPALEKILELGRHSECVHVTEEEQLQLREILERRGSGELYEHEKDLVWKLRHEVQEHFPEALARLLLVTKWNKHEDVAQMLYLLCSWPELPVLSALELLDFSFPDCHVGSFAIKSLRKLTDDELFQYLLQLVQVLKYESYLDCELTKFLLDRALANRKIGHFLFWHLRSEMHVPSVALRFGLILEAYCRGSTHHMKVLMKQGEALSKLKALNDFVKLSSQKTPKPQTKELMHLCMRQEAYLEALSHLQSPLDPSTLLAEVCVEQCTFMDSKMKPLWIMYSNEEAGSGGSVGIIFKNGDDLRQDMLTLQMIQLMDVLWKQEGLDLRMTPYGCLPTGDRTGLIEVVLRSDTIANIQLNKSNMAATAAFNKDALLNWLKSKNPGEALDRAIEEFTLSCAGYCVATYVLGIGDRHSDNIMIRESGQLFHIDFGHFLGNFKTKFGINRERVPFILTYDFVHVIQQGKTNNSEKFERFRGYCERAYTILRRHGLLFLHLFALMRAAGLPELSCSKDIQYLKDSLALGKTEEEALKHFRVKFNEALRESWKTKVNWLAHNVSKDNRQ
p110δ/p85α, sequence (P27986 whole entry partner): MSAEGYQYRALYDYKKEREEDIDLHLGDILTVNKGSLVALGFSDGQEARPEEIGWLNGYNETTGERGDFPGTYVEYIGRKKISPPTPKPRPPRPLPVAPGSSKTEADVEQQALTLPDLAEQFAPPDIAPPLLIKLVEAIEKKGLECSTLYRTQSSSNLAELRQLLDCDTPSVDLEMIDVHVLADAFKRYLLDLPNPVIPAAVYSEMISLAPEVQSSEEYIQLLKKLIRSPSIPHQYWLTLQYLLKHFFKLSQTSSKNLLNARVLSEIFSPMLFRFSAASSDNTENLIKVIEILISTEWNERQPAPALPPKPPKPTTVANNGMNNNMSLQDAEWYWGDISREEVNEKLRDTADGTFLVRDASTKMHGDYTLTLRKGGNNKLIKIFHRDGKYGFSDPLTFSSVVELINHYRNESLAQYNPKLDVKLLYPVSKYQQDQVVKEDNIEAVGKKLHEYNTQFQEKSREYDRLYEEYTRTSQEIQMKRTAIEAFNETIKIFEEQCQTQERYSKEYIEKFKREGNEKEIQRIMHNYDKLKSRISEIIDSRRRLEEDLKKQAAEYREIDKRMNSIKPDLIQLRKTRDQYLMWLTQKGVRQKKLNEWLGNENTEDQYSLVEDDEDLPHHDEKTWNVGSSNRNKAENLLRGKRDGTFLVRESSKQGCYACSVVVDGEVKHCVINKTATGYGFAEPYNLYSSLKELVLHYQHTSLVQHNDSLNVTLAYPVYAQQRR
p110γ, sequence (P48736 whole entry): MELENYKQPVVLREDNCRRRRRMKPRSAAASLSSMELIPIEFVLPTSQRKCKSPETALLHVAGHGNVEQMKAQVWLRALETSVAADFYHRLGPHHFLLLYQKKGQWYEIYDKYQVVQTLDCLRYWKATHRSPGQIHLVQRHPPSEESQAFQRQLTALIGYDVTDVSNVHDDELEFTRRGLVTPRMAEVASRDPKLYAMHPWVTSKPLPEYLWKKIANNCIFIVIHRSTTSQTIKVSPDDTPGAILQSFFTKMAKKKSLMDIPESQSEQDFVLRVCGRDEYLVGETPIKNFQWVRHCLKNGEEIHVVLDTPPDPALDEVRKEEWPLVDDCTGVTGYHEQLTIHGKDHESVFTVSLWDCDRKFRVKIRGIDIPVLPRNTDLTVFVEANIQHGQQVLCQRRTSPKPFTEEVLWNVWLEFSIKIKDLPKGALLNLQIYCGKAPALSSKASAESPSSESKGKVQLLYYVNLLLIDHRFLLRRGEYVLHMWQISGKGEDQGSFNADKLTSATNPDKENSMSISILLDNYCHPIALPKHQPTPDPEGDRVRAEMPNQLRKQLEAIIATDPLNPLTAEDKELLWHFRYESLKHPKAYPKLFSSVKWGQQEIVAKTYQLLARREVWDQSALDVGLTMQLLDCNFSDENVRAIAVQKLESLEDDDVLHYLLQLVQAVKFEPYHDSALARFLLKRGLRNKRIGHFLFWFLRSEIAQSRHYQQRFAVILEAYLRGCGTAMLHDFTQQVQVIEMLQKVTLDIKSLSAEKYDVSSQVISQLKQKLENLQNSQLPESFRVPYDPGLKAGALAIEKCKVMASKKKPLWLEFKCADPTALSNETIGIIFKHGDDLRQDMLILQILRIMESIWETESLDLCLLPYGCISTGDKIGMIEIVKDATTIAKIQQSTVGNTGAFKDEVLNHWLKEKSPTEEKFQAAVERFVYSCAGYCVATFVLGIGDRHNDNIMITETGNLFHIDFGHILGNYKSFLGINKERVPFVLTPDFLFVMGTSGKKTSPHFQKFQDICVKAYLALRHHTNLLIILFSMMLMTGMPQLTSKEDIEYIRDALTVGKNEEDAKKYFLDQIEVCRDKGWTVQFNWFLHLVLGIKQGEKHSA
p110α/p85α, sequence (P42336 whole entry): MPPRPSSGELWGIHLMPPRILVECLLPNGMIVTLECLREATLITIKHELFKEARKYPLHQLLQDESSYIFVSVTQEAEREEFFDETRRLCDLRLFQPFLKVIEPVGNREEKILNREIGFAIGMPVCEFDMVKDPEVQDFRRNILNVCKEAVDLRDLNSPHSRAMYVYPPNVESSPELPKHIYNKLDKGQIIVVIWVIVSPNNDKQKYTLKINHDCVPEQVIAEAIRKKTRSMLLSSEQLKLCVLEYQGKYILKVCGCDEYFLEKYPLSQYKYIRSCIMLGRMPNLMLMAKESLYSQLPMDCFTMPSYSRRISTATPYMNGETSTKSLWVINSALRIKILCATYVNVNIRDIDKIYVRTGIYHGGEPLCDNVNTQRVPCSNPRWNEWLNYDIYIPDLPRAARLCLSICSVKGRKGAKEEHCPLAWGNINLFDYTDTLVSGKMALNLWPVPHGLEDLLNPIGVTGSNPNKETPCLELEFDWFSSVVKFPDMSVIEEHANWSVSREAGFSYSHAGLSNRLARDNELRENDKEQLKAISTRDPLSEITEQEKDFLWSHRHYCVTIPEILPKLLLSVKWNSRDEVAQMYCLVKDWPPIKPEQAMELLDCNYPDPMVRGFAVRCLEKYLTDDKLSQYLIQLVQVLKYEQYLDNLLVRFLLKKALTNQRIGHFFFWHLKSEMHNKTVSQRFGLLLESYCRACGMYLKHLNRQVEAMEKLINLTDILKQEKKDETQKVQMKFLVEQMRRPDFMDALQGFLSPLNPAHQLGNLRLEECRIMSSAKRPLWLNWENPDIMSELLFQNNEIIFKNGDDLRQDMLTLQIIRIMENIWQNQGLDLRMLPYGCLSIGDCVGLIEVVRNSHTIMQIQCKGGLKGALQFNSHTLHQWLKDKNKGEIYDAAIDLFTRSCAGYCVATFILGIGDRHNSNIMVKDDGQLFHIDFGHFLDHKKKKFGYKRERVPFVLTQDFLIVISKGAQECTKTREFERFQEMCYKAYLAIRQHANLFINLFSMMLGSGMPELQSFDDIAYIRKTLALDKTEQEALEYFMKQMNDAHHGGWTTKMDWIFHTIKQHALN
p110α/p85α, sequence (P27986 whole entry partner): as the sequence (P27986 whole entry partner) above
p110β/p85α, sequence (P42338 whole entry): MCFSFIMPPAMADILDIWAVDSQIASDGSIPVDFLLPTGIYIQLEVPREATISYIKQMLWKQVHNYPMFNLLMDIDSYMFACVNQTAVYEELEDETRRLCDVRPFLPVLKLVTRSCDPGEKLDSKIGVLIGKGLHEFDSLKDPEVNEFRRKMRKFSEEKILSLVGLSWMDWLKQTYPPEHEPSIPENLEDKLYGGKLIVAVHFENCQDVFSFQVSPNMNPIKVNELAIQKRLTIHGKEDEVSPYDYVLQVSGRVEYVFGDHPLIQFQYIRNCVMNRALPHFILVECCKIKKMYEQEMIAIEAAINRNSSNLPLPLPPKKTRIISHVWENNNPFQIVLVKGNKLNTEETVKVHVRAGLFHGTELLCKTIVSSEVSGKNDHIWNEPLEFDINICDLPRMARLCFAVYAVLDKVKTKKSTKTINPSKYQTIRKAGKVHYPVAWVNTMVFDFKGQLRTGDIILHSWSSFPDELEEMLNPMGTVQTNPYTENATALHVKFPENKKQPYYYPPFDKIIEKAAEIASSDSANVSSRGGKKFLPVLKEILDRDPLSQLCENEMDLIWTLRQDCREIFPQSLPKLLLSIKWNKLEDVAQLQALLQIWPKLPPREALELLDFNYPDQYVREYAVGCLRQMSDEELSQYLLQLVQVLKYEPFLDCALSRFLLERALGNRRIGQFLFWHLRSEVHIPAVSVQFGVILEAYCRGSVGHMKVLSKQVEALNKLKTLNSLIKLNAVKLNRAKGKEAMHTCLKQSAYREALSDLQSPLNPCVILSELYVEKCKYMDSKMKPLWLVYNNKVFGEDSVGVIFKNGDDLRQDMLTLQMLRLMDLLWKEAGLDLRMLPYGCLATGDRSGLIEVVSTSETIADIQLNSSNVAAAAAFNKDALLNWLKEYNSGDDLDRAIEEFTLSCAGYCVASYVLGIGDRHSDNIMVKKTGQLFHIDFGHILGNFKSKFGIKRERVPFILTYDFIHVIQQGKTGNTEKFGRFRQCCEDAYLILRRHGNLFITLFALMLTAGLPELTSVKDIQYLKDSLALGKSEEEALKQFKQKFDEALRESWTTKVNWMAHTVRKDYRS
p110β/p85α, sequence (P27986 whole entry partner): as the sequence (P27986 whole entry partner) above

SMILES	IC50 (p110α/p85α; [2]) [µM]	IC50 (p110β/p85α; [3]) [µM]	IC50 (p110δ/p85α; [4]) [µM]	IC50 (p110γ; [5]) [µM]	IC50 (p110α/p85α; read-out: PI3K α In Vitro IC50) [µM]	IC50 (p110β/p85α; read-out: PI3K β In Vitro IC50) [µM]	IC50 (p110δ/p85α; read-out: PI3K δ In Vitro IC50) [µM]	IC50 (p110γ; read-out: PI3K γ In Vitro IC50) [µM]	IC50 [1] [µM]
CN(C)[C@H]1CCN(c2cnc3ccc(-c4ccc5oc(N)nc5c4)cc3n2)C1 [compound 382]	< 0.1	< 1	< 10	< 1	–	–	–	–	–
Cc1cc(-c2ccc3oc(N)nc3c2)cc2c(-c3ccncc3)cnn12 [compound 397]	–	–	–	–	< 0.1	< 1	< 1	< 0.1	–
Nc1nc2cc(-c3ccn4ncc(C(=O)N5CCC(N6CCOCC6)CC5)c4c3)ccc2o1 [compound 398]	–	–	–	–	< 1	< 10	< 10	< 10	–
CC(Oc1nc(-c2ccc3ncc(C(=O)N4CCOCC4)n3c2)cnc1N)C(F)(F)F (stereo not shown) [compound 411]	–	–	–	–	< 0.1	< 10	< 10	< 1	–
Nc1nc2cc(-c3ccc4ncc(N5CCNC(C(F)F)C5)nc4c3)ccc2o1 (stereo not shown) [compound 413]	–	–	–	–	< 0.1	< 1	< 10	< 1	–
Nc1nc2ccc(-c3cc(F)c4oc(N)nc4c3)cc2o1 [compound 433]	–	–	–	–	< 1	< 1	< 10	< 0.1	–
CC(=O)Nc1nc2ccc(-c3cc(F)c4oc(N)nc4c3)cc2s1 [compound 434]	–	–	–	–	< 0.1	< 0.1	< 0.1	< 0.1	–
Nc1nc2cc(-c3ccc4nc(N)sc4c3)cc(F)c2o1 [compound 436]	–	–	–	–	< 0.1	< 0.1	< 1	< 0.1	–
CO[C@H]1CCN(C(=O)c2cnc3ccc(-c4ccc5oc(N)nc5c4)cn23)C1 [compound 463]	–	–	–	–	< 0.1	< 10	< 10	< 1	–
CO[C@@H]1CCN(C(=O)c2cnc3ccc(-c4ccc5oc(N)nc5c4)cn23)C1 [compound 464]	–	–	–	–	< 0.1	–	–	< 1	< 10
Nc1nc2cc(-c3ccc4ncc(C(=O)N5CC[C@@H](N6CCOCC6)C5)n4c3)ccc2o1 [compound 466]	–	–	–	–	< 1	< 10	< 10	< 1	–
Nc1nc2cc(-c3ccc4ncc(C(=O)N5CCC(F)(F)C5)n4c3)ccc2o1 [compound 471]	–	–	–	–	< 0.1	–	–	< 0.1	< 10
Nc1nc2cc(-c3ccc4ncc(C(=O)N5CC(F)(F)C5)n4c3)ccc2o1 [compound 473]	–	–	–	–	< 0.1	–	–	< 0.1	< 1
C[C@@H]1CCCN1C(=O)c1cnc2ccc(-c3ccc4oc(N)nc4c3)cn12 [compound 481]	–	–	–	–	< 0.1	< 10	< 10	< 1	–

Next, values leading:

IC50 (p110α/p85α; [2]) [µM]	IC50 (p110β/p85α; [3]) [µM]	IC50 (p110δ/p85α; [4]) [µM]	IC50 (p110γ; [5]) [µM]	IC50 (p110α/p85α; read-out: PI3K α In Vitro IC50) [µM]	IC50 (p110β/p85α; read-out: PI3K β In Vitro IC50) [µM]	IC50 (p110δ/p85α; read-out: PI3K δ In Vitro IC50) [µM]	IC50 (p110γ; read-out: PI3K γ In Vitro IC50) [µM]	IC50 [1] [µM]	SMILES
< 0.1	< 1	< 10	< 10	–	–	–	–	–	CN1CCN([C@H]2CCN(c3cnc4ccc(-c5ccc6oc(N)nc6c5)cc4n3)C2)CC1 [compound 381]
< 0.1	< 0.1	< 1	< 0.1	–	–	–	–	–	Nc1nc2cc(-c3ccc4ncc(N5CCn6cccc6C5)nc4c3)ccc2o1 [compound 394]
–	–	–	–	< 0.1	< 10	< 10	< 1	–	COc1ncc(-c2ccc3ncc(C(=O)N4CCOCC4)n3c2)cc1NS(C)(=O)=O [compound 416]
–	–	–	–	< 0.1	< 1	< 0.1	< 0.1	–	COc1ncc(-c2ccc3ncc(C(=O)N4CCOCC4)n3c2)cc1NS(=O)(=O)c1ccc(F)cc1 [compound 421]
–	–	–	–	< 0.1	< 10	< 1	< 0.1	–	COc1ncc(-c2ccc3ncc(C(=O)N4CCOCC4)n3c2)cc1NS(=O)(=O)c1ccccc1F [compound 422]
–	–	–	–	< 0.1	< 1	< 0.1	< 0.1	–	COc1ncc(-c2ccc3ncc(C(=O)N4CCOCC4)n3c2)cc1NS(=O)(=O)c1cccc(F)c1 [compound 423]
–	–	–	–	< 1	< 10	< 10	< 10	–	O=C(c1cnc2ccc(-c3ccc(Cl)c(NS(=O)(=O)c4ccc(F)cc4F)c3)cn12)N1CCOCC1 [compound 461]
–	–	–	–	< 1	< 10	< 10	< 1	–	CC(C)N1CCC(n2cnc3ccc(-c4cncc(NS(=O)(=O)c5ccc(F)cc5F)c4)cc3c2=O)CC1 [compound 519]
–	–	–	–	< 0.1	< 0.1	< 0.1	< 1	–	CC(C)N1CCC(n2cnc3ccc(-c4cnc(Cl)c(NS(=O)(=O)c5ccccc5)c4)cc3c2=O)CC1 [compound 521]
–	–	–	–	< 0.1	< 1	< 0.1	< 10	–	COc1ncc(-c2ccc3ncn(C4CCN(C)CC4)c(=O)c3c2)cc1NS(C)(=O)=O [compound 525]
–	–	–	–	< 0.1	< 0.1	< 0.1	< 1	–	CN1CCC(n2cnc3ccc(-c4cnc(Cl)c(NS(=O)(=O)c5ccccc5)c4)cc3c2=O)CC1 [compound 527]
